Measured values as given in US4063014A, “4"-O-sulfonyl erythromycin-9-O-oxime derivatives” (Abbott Laboratories, priority 1975, dated 1977).

Tested on: S.aureus (Smith)
Test: S.aureus (Smith) infection, oral medication
Assay type: in vivo
Parameters: DOSAGE LEVELS 300 / DOSAGE LEVELS 150 / DOSAGE LEVELS 75 / DOSAGE LEVELS 37.5 / DOSAGE LEVELS 18.75: unit not given here
Conditions: for DOSAGE LEVELS 18.75: dosage level 18.75, infection 10-100 LD50, Rt-IP; for DOSAGE LEVELS 37.5: dosage level 37.5, infection 10-100 LD50, Rt-IP; for DOSAGE LEVELS 75: dosage level 75, infection 10-100 LD50, Rt-IP; for DOSAGE LEVELS 150: dosage level 150, infection 10-100 LD50, Rt-IP; for DOSAGE LEVELS 300: dosage level 300, infection 10-100 LD50, Rt-IP

Row | Compound | DOSAGE LEVELS 18.75 | DOSAGE LEVELS 37.5 | DOSAGE LEVELS 75 | DOSAGE LEVELS 150 | DOSAGE LEVELS 300 | ED50 (Staphylococcus aureus, infection 10-100 LD50, Rt-IP, read-out: CD50 (the source's name)) [mg/kg]
1 | CC[C@H]1OC(=O)[C@H](C)[C@@H](O[C@H]2C[C@@](C)(OC)[C@@H](OS(=O)(=O)CCNC(=S)Nc3ccccc3)[C@H](C)O2)[C@H](C)[C@@H](O[C@@H]2O[C@H](C)C[C@H](N(C)C)[C@H]2O)[C@](C)(O)C[C@@H](C)C(=NOC)[C@H](C)[C@@H](O)[C@]1(C)O [Example V, 4"-O-[β-(3-Phenylthioureido)-1-Ethyl]sulfonyl Erythromycin-A-9-O-Methyloxime] | 0 | 0 | 0 | 20 | 80 | 
2 | CC[C@H]1OC(=O)[C@H](C)[C@@H](O[C@H]2C[C@@](C)(OC)[C@@H](OS(=O)(=O)CCNC(=O)c3ccc([N+](=O)[O-])cc3)[C@H](C)O2)[C@H](C)[C@@H](O[C@@H]2O[C@H](C)C[C@H](N(C)C)[C@H]2O)[C@](C)(O)C[C@@H](C)C(=NOC)[C@H](C)[C@@H](O)[C@]1(C)O [Example XV, 4"-O-[β-(p-Nitrobenzamido)ethyl]Sulfonyl Erythromycin A-9-O-Methyloxime] | 10 | 10 | 0 | 0 | 60 | 
3 | CC[C@H]1OC(=O)[C@H](C)[C@@H](O[C@H]2C[C@@](C)(OC)[C@@H](OS(=O)(=O)CCNC(=O)Nc3ccccc3)[C@H](C)O2)[C@H](C)[C@@H](O[C@@H]2O[C@H](C)C[C@H](N(C)C)[C@H]2O)[C@](C)(O)C[C@@H](C)C(=NOC)[C@H](C)[C@@H](O)[C@]1(C)O [VI, 4"-O-[β-(3-Phenylureido)-Ethyl]sulfonyl Erythromycin A-9-O-Methyloxime] | 10 | 20 | 20 | 10 | 50 | 
4 | CC[C@H]1OC(=O)[C@H](C)[C@@H](O[C@H]2C[C@@](C)(OC)[C@@H](OS(=O)(=O)CCNC(=O)CNC(=O)OCc3ccccc3)[C@H](C)O2)[C@H](C)[C@@H](O[C@@H]2O[C@H](C)C[C@H](N(C)C)[C@H]2O)[C@](C)(O)C[C@@H](C)C(=NOC)[C@H](C)[C@@H](O)[C@]1(C)O [XII, 4"-O-[β-(N-Carbobenzyloxyglycyl)Amidoethyl]Sulfonyl Erythromycin A-9-O-Methyloxime] | 20 | 0 | 0 | 0 | 30 | > 300
5 | CC[C@H]1OC(=O)[C@H](C)[C@@H](O[C@H]2C[C@@](C)(OC)[C@@H](OS(=O)(=O)CCNS(=O)(=O)c3ccc([N+](=O)[O-])cc3)[C@H](C)O2)[C@H](C)[C@@H](O[C@@H]2O[C@H](C)C[C@H](N(C)C)[C@H]2O)[C@](C)(O)C[C@@H](C)C(=NOC)[C@H](C)[C@@H](O)[C@]1(C)O [XVII, 4"-O-[β-(p-Nitrobenzenesulfonamido)Ethyl]Sulfonyl Erythromycin A-9-O-Methyloxime] | 0 | 10 | 10 | 0 | 80 | 
